The source made the active and inactive calls. No cut-off for these calls is given here.
Tests used:
[1] = target: Kinesin-like protein KIF20B (Homo sapiens) (UniProt Q96Q89); test: Inhibition of MPP1 ATPase activity
[2] = target: T1, Kinesin-like protein KIF20A (Homo sapiens) (UniProt O95235); test: Inhibition of MKLP2 ATPase activity
T1 sequence (whole entry): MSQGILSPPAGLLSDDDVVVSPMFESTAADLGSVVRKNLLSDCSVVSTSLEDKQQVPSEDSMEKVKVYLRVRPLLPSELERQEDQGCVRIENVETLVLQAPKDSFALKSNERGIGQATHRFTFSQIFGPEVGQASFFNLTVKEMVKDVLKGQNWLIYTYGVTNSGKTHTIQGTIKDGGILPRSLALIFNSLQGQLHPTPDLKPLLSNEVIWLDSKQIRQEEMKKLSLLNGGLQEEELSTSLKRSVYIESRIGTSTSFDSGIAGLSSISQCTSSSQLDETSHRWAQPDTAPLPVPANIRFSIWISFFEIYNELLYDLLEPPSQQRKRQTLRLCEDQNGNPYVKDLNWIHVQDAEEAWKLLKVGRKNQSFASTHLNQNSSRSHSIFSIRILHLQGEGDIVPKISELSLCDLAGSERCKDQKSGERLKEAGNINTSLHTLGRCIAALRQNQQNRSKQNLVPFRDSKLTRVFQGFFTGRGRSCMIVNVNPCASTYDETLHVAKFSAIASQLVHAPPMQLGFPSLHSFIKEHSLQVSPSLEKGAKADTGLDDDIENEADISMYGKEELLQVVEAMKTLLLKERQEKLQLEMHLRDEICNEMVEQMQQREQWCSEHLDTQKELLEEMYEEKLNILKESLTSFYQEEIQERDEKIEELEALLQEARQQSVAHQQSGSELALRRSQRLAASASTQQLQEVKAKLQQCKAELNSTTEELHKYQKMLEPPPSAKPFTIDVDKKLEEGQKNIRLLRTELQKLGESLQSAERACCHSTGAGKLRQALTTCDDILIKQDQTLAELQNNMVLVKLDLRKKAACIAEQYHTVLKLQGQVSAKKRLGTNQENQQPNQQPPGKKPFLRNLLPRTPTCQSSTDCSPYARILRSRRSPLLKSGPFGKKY

[3] = target: T1, Kinesin-like protein KIF20A (Homo sapiens); test: Inhibition of MT-stimulated MKLP2 ATPase activity
[4] = Turbidimetric solubility of the compound at pH 6; format: physicochemical; conditions: buffer
[5] = Antitumor activity against human LXFS 538 cells xenografted in nu/nu nude Charles river mouse assessed as inhibition of tumor growth dosed at 20 mg/kg on days 0, 2 and 4 and 15 mg/kg on days 17, 19, 24 measured after 10 days; format: functional

Kinesin-like protein KIF20B (Homo sapiens), sequence (Q96Q89 whole entry): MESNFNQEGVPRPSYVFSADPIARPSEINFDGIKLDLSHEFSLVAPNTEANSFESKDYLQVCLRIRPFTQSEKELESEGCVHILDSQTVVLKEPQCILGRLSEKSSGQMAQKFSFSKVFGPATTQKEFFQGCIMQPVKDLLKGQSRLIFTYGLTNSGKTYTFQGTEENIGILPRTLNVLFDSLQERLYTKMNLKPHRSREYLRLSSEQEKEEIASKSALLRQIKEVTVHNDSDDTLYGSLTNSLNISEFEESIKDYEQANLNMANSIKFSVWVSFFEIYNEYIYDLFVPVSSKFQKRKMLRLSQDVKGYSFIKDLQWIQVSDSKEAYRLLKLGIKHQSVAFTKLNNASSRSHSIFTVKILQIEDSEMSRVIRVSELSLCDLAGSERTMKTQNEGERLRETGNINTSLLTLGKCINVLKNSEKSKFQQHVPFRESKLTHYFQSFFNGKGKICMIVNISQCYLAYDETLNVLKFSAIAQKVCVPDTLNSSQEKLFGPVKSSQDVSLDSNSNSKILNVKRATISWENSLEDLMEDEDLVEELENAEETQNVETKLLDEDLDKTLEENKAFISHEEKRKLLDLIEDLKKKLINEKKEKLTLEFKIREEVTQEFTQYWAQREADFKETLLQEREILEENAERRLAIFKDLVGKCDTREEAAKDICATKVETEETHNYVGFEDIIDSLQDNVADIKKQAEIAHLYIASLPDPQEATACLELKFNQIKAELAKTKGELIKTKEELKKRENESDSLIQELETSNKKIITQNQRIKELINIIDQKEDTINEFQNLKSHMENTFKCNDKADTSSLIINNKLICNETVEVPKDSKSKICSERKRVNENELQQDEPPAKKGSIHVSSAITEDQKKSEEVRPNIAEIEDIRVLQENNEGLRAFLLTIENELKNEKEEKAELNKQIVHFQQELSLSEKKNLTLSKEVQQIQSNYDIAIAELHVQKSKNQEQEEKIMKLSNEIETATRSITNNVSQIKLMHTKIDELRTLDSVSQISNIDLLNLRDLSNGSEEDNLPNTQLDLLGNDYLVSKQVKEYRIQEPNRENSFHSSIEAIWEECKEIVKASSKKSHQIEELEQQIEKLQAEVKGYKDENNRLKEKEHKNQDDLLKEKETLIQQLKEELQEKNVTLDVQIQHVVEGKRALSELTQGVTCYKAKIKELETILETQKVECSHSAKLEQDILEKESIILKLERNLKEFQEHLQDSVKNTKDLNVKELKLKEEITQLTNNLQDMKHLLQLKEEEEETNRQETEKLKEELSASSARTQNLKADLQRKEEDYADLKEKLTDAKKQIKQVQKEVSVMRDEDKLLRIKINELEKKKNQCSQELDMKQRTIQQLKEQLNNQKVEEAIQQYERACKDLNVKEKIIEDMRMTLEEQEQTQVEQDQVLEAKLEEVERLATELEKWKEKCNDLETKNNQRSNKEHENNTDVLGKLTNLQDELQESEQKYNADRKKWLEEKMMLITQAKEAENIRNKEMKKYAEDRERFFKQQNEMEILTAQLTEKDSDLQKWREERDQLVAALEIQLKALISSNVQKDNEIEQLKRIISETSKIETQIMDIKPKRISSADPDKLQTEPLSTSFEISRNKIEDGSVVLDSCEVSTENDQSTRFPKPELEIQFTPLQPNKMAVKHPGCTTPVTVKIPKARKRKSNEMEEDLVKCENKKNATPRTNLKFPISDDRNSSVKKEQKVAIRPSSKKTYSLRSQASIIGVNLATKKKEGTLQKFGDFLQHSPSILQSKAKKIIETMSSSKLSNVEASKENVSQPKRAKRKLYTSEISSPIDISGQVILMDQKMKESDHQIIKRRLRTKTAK

Structure (SMILES): Cc1cccc(C(CCC(N)C(=O)O)(c2ccccc2)c2ccccc2)c1 (racemic)
- inhibition [1]: inactive
- inhibition [2]: inactive
- inhibition [3]: inactive
- solubility kinetic [4]: > 100 µM
- T/C [5]: 26.3%

Source: ChEMBL document CHEMBL2021885, “Triphenylbutanamines: kinesin spindle protein inhibitors with in vivo antitumor activity” (J Med Chem, 2012)
